“And” between values parts separate entries of the source, which are not always exact repeats. Equal entries are not always repeated.
Key:
mushroom tyrosinase [1] = experiment: Test of anthocyanidin compounds for inhibiting tyrosinase activity (Example 11, IC50); assay type: biochemical; conditions: for IC50: 25° C., L-Dopa, 475 nm
Protocol: The sample compounds were dissolved in DMSO and diluted with DMSO at adequate concentrations.
1/15M phosphate buffer (70 μl), 70 μl of a solution containing mushroom tyrosinase adjusted at 1 U/μl with a buffer, and 2 μl each of sample solutions dissolved in DMSO at various concentrations were introduced into separate wells of a 96-well plate, and these substances were thoroughly mixed, followed by incubation at 25° C. for 10 minutes.
A solution of 10 mM L-Dopa (70 μl) was added and mixed in immediately thereafter. […] The reaction was carried out at 25° C.
Change (slope) in the absorbance per unit time was designated as the initial rate, and the inhibition of tyrosinase activity (%) was determined by the following equation. Inhibition (%)={1−(initial ratesample/initial ratecontrol)}×100

tyrosinase [2] = conditions: cited from earlier work
mushroom tyrosinase [3] = experiment: Inhibition of tyrosinase activity (L-Dopa, absorbance at 475 nm), procedure of Example 3; assay type: biochemical; conditions: for effects of inhibiting tyrosinase activity (FIG. 1, 3, 4): 25° C., various concentrations in DMSO; for effects for inhibiting tyrosinase activity relative to kojic acid: compared with kojic acid, Table 2; for IC50: procedure of Example 3, read-out: Concentration at which 50% of tyrosinase activity is inhibited
Protocol: 1/15M phosphate buffer (70 μl, pH 6.8), 2 μl each of sample solutions of the C18-adsorbed fraction obtained in Example 1 dissolved in dimethyl sulfoxide (DMSO) at various concentrations, and 70 μl (10 U) of mushroom tyrosinase (Calzyme Laboratories) dissolved in the buffer were mixed, and the mixture was incubated at 25° C. for 10 minutes. Thereafter, 70 μl of 10 mM L-Dopa was added to initiate the reaction, the absorbance at 475 nm was assayed every 20 seconds for 2 minutes, and the inhibition (%) of tyrosinase activity was calculated using the following equation. […] Further, PVPP resin was added to the supernatant to a concentration of 1%, and the resultant was also agitated for 1.5 hours, followed by centrifugation to obtain a supernatant. […] The sample was dissolved in 1/15M phosphate buffer (pH 6.8) instead of DMSO. The polyphenol content was assayed in the same manner as in Example 1.

[4] = in vivo; cited from earlier work
tyrosinase [5] = experiment: Tyrosinase activity inhibition, C18-adsorbed fraction and ascorbic acid alone and combined (Example 12, absorbance at 450 nm); assay type: biochemical, mushroom
Protocol: A sample (or a combination of two types of samples) was dissolved in DMSO and diluted with DMSO at adequate concentrations.
A tyrosinase solution (70 μl, 10 U/70 μl, Calzyme Laboratories, Inc.), 70 μl of 1/15M phosphate buffer (Wako Pure Chemical Industries, Ltd.), and 4 μl each of the samples dissolved in DMSO at various concentrations were introduced into separate wells of a 96-well plate. DMSO was added to a control sample instead of a sample solution.
After the pre-incubation was carried out at 25° C. for 10 minutes, 70 μl of 10 mM L-DOPA (Wako Pure Chemical Industries, Ltd.) was added, the mixture was mixed immediately thereafter, and the absorbance at 450 nm was assayed every 20 seconds for 2 minutes. Change (slope) in the absorbance per unit time thus assayed was designated as the initial rate, and the inhibition (%) was determined by the following equation. Inhibition (%)={1−(initial ratesample/initial ratecontrol)}×100
The terms “additive effect” and “synergistic effect” are described. When tyrosinase activity inhibition (%) by the C18-adsorbed fraction alone at a concentration of A μg/ml is X (%) and tyrosinase activity inhibition (%) by ascorbic acid alone at a concentration of B μg/ml is Y (%), the case where the value Z for the tyrosinase activity inhibition (%) assayed upon the reaction of the C18-adsorbed fraction at a concentration of A μg/ml with ascorbic acid at a concentration of B μg/ml is equal to the sum of X+Y is evaluated as “C18-adsorbed fraction additively reacts with ascorbic acid.” The case where the value Z is greater than the sum of X+Y is evaluated as “C18-adsorbed fraction synergistically reacts with ascorbic acid.” When the value Z is smaller than the sum of X+Y, the C18-adsorbed fraction and ascorbic acid attenuate their effects each other.

Row | SMILES | effects of inhibiting tyrosinase activity (mushroom tyrosinase [1]) | IC50 (mushroom tyrosinase [1]) [µM] | effects of inhibiting tyrosinase activity (Non-Patent Document 1) (tyrosinase [2]) | other results
1 | Oc1cc(O)c2cc(O)c(-c3ccc(O)c(O)c3)[o+]c2c1.[Cl-] [Cyanidin chloride] | found to have effects of inhibiting tyrosinase activity | 11 | neither delphinidin, cyanidin, and malvidin have effects of inhibiting tyrosinase activity | 
2 | OC[C@H]1O[C@@H](Oc2cc3c(O)cc(O)cc3[o+]c2-c2ccc(O)c(O)c2)[C@H](O)[C@@H](O)[C@@H]1O [Cyanidin-3-glucoside, reference compound] |  | 84 |  | 
3 | CC1O[C@@H](Oc2cc3c(O)cc(O)cc3[o+]c2-c2ccc(O)cc2)[C@@H](O)C(O)[C@H]1O (some centres unmarked) [P3R, pelargonidin-3-rhamnoside] |  | 5.7 |  | effects of inhibiting tyrosinase activity (FIG. 1, 3, 4) (mushroom tyrosinase [3]): found to have effects of inhibiting tyrosinase activity; effects for inhibiting tyrosinase activity relative to kojic acid (mushroom tyrosinase [3]): about 6 times; IC50 (mushroom tyrosinase [3]): 5.7 µM
4 | C[C@@H]1O[C@@H](Oc2cc3c(O)cc(O)cc3[o+]c2-c2ccc(O)c(O)c2)[C@H](O)[C@H](O)[C@H]1O.[Cl-] [C3R, cyanidin-3-rhamnoside] |  | 33 |  | effects of inhibiting tyrosinase activity (FIG. 1, 3, 4) (mushroom tyrosinase [3]): found to have effects of inhibiting tyrosinase activity; effects for inhibiting tyrosinase activity relative to kojic acid (mushroom tyrosinase [3]): equivalent to those of kojic acid; IC50 (mushroom tyrosinase [3]): 33 µM
5 | Oc1ccc(-c2[o+]c3cc(O)cc(O)c3cc2O)cc1 [Pelargonidin chloride] | found to have effects of inhibiting tyrosinase activity | 20 |  | 
6 | O=c1cc(CO)occ1O [Kojic acid] |  |  |  | potential cause of liver cancer in animal tests [4]: found to be a potential cause of liver cancer
7 | Oc1cc(O)c2cc(O)c(-c3cc(O)c(O)c(O)c3)[o+]c2c1 [Delphinidin chloride] | found to have effects of inhibiting tyrosinase activity | 16.4 | neither delphinidin, cyanidin, and malvidin have effects of inhibiting tyrosinase activity | 
8 | C[C@@H]1O[C@@H](O[C@H]2C(=O)c3c(O)cc(O)cc3O[C@@H]2c2ccc(O)c(O)c2)[C@H](O)[C@H](O)[C@H]1O [Astilbin, dehydroquercitrin] |  | > 2000 |  | 
9 | COc1cc(-c2[o+]c3cc(O)cc(O)c3cc2O)cc(OC)c1O [Malvidin chloride] | particularly potent | 0.4 | neither delphinidin, cyanidin, and malvidin have effects of inhibiting tyrosinase activity | 
10 | O=C1O[C@H]([C@@H](O)CO)C(O)=C1O [Ascorbic acid, ascorbic acid] |  |  |  | Inhibition of tyrosinase activity (%) (mushroom tyrosinase [3]; Ascorbic acid 33.3 μM): 5.49%; Mean of tyrosinase activity inhibition (n = 3) (tyrosinase [5]; ascorbic acid alone 2.4 μg/ml): −1.3%; Mean of tyrosinase activity inhibition (n = 3) (tyrosinase [5]; ascorbic acid alone 4.7 μg/ml): 1.0% and 1.0 ± 3.4%; Mean of tyrosinase activity inhibition (n = 3) (tyrosinase [5]; ascorbic acid alone 9.4 μg/ml): 9.0% and 9.0 ± 2.9%; Mean of tyrosinase activity inhibition (n = 3) (tyrosinase [5]; ascorbic acid alone 47.2 μg/ml): 95.0%; tyrosinase inhibitory activity (tyrosinase [5]; ascorbic acid at a concentration up to 9.4 μg/ml): inhibitory activity was not observed very much; tyrosinase inhibitory activity (tyrosinase [5]; ascorbic acid at a final concentration of 47.2 μg/ml): almost completely inhibited

Reference: patent publication US20070189997A1, “Skin-whitening agent containing polyphenol compound” (Nichirei Foods Inc., priority 2004, published 2007)
